Data taken from PubChem BioAssay (NCI).
Values joined by “and” are separate entries in the source; they are usually repeats but may differ in a detail not shown here. Identical values can stand only once.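 Five concentrations, 48 hours, 96-well plates. GI50 is the concentration that inhibits growth by half. TGI: total growth inhibition.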

What was measured:
Test in all cases: NCI tumour cell line growth inhibition, 48 h
CAKI-1 renal = tested on: CAKI-1 renal
HCT-116 colon = tested on: HCT-116 colon
HOP-62 NSCLC = tested on: HOP-62 NSCLC
HOP-92 NSCLC = tested on: HOP-92 NSCLC
HS 578T breast = tested on: HS 578T breast
MOLT-4 leukemia = tested on: MOLT-4 leukemia
NCI-H522 lung = tested on: NCI-H522 lung
SF-295 CNS = tested on: SF-295 CNS
DLD-1 colon = tested on: DLD-1 colon

Structure (SMILES) | GI50 (CAKI-1 renal) | TGI (CAKI-1 renal) | GI50 (HCT-116 colon) | TGI (HCT-116 colon) | GI50 (HOP-62 NSCLC) | TGI (HOP-62 NSCLC) | GI50 (HOP-92 NSCLC) | TGI (HOP-92 NSCLC) | GI50 (HS 578T breast) | TGI (HS 578T breast) | GI50 (MOLT-4 leukemia) | TGI (MOLT-4 leukemia) | GI50 (NCI-H522 lung) | TGI (NCI-H522 lung) | GI50 (SF-295 CNS) [µM] | TGI (SF-295 CNS) | TGI (DLD-1 colon) [µM]
COc1ccc2[nH]cc(-c3nc(-c4c[nH]c5ncccc45)cs3)c2c1 | 2.05 µM | > 100 µM | 2.9 µM | 21 µM | 5.23 µM | > 100 µM | 2.13 µM | 8.12 µM | 4.17 µM | > 100 µM | 3.13 µM | > 100 µM | 8.02 µM | > 100 µM | 2.66 | 6.87 µM | 
COc1cc(CNCCCN2C(=O)c3ccc4c5c(ccc(c35)C2=O)C(=O)N(CCCNCc2cc(OC)c(OC)c(OC)c2)C4=O)cc(OC)c1OC | 3.28 µM | 9.64 µM | 0.133 µM | 0.41 µM | 0.477 µM | 1.32 µM | 1.02 µM | 2.49 µM | 1.2 µM | 3.76 µM | 0.147 µM | 0.6 µM | 0.409 µM | 1.14 µM | 0.517 | 1.55 µM | 
Ic1ccc(-n2nnnc2-c2cnoc2-c2ccccc2)cc1 | 37.9 µM | > 100 µM | > 43 µM | > 70 µM | 53.3 µM | > 100 µM | 37.9 µM | > 100 µM | 42.7 µM | 98.4 µM | 70 µM | > 100 µM | 46.3 µM | > 100 µM | 38.2 | > 77.8 µM | 
COc1cc(-c2nn(-c3cccc(NC(=O)Nc4ccc(Cl)c(Cl)c4)c3)cc2-c2ccncc2)ccc1Cl | 1.12 µM | 3.7 µM | 1.21 µM | > 50 µM | 1.44 µM | 4.9 µM | 0.151 µM | 1.47 µM | 1.43 µM | > 50 µM | 1.1 µM | 4.48 µM | 0.811 µM | 3.1 µM | 0.691 | 2.53 µM | 
Cc1[nH]c2ccccc2c1-c1cc(-c2cc(-c3c(C)[nH]c4ccccc34)on2)no1 |  | > 100 µM |  | > 100 µM |  | > 100 µM |  | > 100 µM |  | 90.6 µM |  | > 100 µM |  | > 100 µM |  | > 100 µM | 
COc1cccc2c1C(=O)c1c(O)c3c(c(O)c1C2=O)CC(O)(/C(C)=N/NC(=O)CCC(=O)N/N=C(\C)C1(O)Cc2c(O)c4c(c(O)c2C(OC2CC(N)C(O)C(C)O2)C1)C(=O)c1c(OC)cccc1C4=O)CC3OC1CC(N)C(O)C(C)O1 (stereo unspecified) | 0.895 µM | 17.7 µM | 0.147 µM | 0.914 µM | 0.19 µM | 1.57 µM | 0.438 µM |  | 0.261 µM | 2.3 µM | 0.142 µM |  | 0.0503 µM | 0.327 µM | 0.42 | 6.51 µM | 
NS(=O)(=O)c1ccc(N(/C=C/C(=O)C(F)(F)F)CC(=O)c2ccc(Cl)cc2)cc1 | 24.4 µM | 66 µM | 18.7 µM | 40 µM | 33 µM | > 100 µM | 22.3 µM | 86.7 µM | > 100 µM | > 100 µM | 32.9 µM | 89.9 µM | 24.3 µM | 72.2 µM | 26.2 | 74.4 µM | 
COc1ccncc1C#Cc1cncc(C(=O)Nc2ccc(CN3CCN(C)CC3)c(C(F)(F)F)c2)c1 | 22.6 µM | > 100 µM | 6.72 µM | > 100 µM | 20.9 µM | > 100 µM | 4.83 µM | 57.2 µM | 7.75 µM | 52.5 µM | 14.5 µM | > 100 µM | 11.4 µM | 46 µM | 37.3 | > 100 µM | 
Cc1ccc(/C=C/c2c(C(=O)/C=C/c3ccc(C(F)(F)F)cc3)c(C)nc3ccccc23)cc1 | 1.11 µM | 2.32 µM | 0.496 µM | 2.09 µM | 1.88 µM | 3.73 µM | 1.43 µM | 2.98 µM | 1.66 µM | 4.63 µM | 0.625 µM | > 100 µM | 1.33 µM | 4.35 µM | 1.74 | 3.14 µM | 
COC(=O)[C@]1(C)CCCC2(C)C1CC[C@H]1C=C(C)[C@H]3CCC12C3 (stereo partly specified) |  | > 100 µM |  | > 100 µM |  | > 100 µM |  | > 100 µM |  |  |  | > 100 µM |  | > 100 µM |  | > 100 µM | > 100
CC(=O)c1cc2c(o1)C(=O)c1ccccc1C2=O | 1.45 µM and 0.823 µM | 2.93 µM and 2.24 µM | 0.226 µM and 0.267 µM | 0.544 µM and 0.805 µM | 0.163 µM and 0.186 µM | 0.329 µM and 0.35 µM | 2.18 µM and 1.82 µM | 4.24 µM and 3.47 µM | 0.292 µM and 0.295 µM | 0.771 µM and 0.806 µM | 0.57 µM and 0.865 µM | 1.85 µM and 3.65 µM | 0.19 µM and 0.194 µM | 0.413 µM and 0.495 µM | 0.173 | 0.332 µM and 0.317 µM | 
Nc1nccc2c1ccn2-c1ccc(NC(=O)c2ccc(N3CCOCC3)c(C(F)(F)F)c2)cc1 | 0.484 µM | 3.45 µM | 0.873 µM | 11.1 µM | 0.342 µM | 1.73 µM | 0.418 µM | 3.84 µM | 0.22 µM | 0.88 µM | 0.318 µM |  | 1.12 µM | 6.71 µM | 0.204 | 0.515 µM | 
CC(CC(=O)O)C(C(=O)O)C(=O)O (stereo unspecified) |  | > 100 µM |  | > 100 µM |  | > 100 µM |  | > 100 µM |  | > 100 µM |  | > 100 µM |  | > 100 µM |  | > 100 µM | 
CCCn1c(N)c(C(=O)N/N=C(/C)c2cc3cccc(OC)c3o2)sc1=S | 0.0161 µM | > 100 µM | 17.4 µM | > 100 µM | 11.8 µM | 30 µM | 27.4 µM | 78.8 µM | 17.7 µM | 69.9 µM | 24.2 µM | > 100 µM | 51.6 µM | > 100 µM | 0.01 | 18.1 µM | 
COc1cc(C2c3cc4c(cc3C(O)C(CO)C2CO)OCO4)cc(OC)c1OC (stereo unspecified) | 3.09 µM | > 46.2 µM | 0.492 µM | > 100 µM | 1.47 µM | > 100 µM | > 100 µM | > 100 µM | 0.623 µM |  | 1.59 µM | > 100 µM | 0.38 µM |  | 0.219 | 0.468 µM | 
